Patent US12624004B2 (Fudan University, priority 2019, dated 2026)
Structures can show the parent of a compound that is named as a salt. Where two headings read alike, the source gives them in different places.

Assays:
μ opioid receptor = molecular target: T1, μ opioid receptor (Homo sapiens, UniProt P35372); assay: Competition binding assay on membranes of CHO cells expressing μ opioid receptor, [3H]-labeled ligand; details: for Ki: read-out: μOR Ki
T1 construct: expressed in transfected cells; host or cells: CHO cells (membranes)
In short: (§1)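 CHO membranes (20–30 μg protein) incubated with [3H]-labeled ligand at 1–2 nM and test compounds, 30 min at 30° C; nonspecific binding with 1 μM corresponding ligand. Filtered on GF/C, washed with 50 mM Tris-HCl pH 7.4, scintillation-counted. IC50 converted to Ki by Ki=IC50/(1+[L]/Kd).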

δ opioid receptor = molecular target: T2, δ opioid receptor (Homo sapiens, UniProt P41143); assay: Competition binding assay on membranes of CHO cells expressing δ opioid receptor, [3H]-labeled ligand
T2 construct: expressed in transfected cells; host or cells: CHO cells (membranes)
In short: as §1

κ opioid receptor = molecular target: T3, κ opioid receptor (Homo sapiens, UniProt P41145); assay: Competition binding assay on membranes of CHO cells expressing κ opioid receptor, [3H]-labeled ligand
T3 construct: expressed in transfected cells; host or cells: CHO cells (membranes)
In short: as §1

Female mice = assay: In vivo hot plate method analgesia test; details: intraperitoneal; for % MPE (5 mg/kg): Table 2-2, hot plate 55° C.; for % MPE @ 10 mg/kg: Table 3-2, hot plate 55° C.; for ED50: Mus musculus, ip
In short: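 Female mice (~20 g) on a 55° C hot plate, hindpaw response latency as pain threshold (pre-screen 5–30 s, 60 s cut-off). Latencies at 15, 30, 60 and 120 min after intraperitoneal dosing. %MPE = (post−pre latency)/(60−pre)×100, ED50 derived from %MPE.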

[1] = 0.5 h, Table 2-1, 1 μM concentration of compound, read-out: δOR Binding rate (%)
[2] = 0.5 h, Table 2-1, 1 μM concentration of compound, read-out: κOR Binding rate (%)
[3] = Table 3-1, 1 μM concentration of compounds, read-out: μOR Binding rate (%)
[4] = 0.5 h, Table 3-1, 1 μM concentration of compounds, read-out: δOR Binding rate (%)
[5] = 0.5 h, Table 3-1, 1 μM concentration of compounds, read-out: κOR Binding rate (%)

| SMILES | Ki (μ opioid receptor; Table 2-1) [nM] | inhibition at 1 µM (δ opioid receptor; [1]) [%] | % MPE (5 mg/kg) (Female mice; 5 mg/kg dose) [%] | inhibition at 1 µM (μ opioid receptor; [3]) [%] | inhibition at 1 µM (δ opioid receptor; [4]) [%] | inhibition at 1 µM (κ opioid receptor; [5]) [%] | % MPE @ 10 mg/kg (Female mice; 10 mg/kg dose) [%] | further results |
| --- | --- | --- | --- | --- | --- | --- | --- | --- |
| COc1cccc(C2(O)CCN(S(=O)(=O)Cc3cccc(Br)c3)CC2CN(C)C)c1.Cl (stereo not shown) [FWBH13, 1-((3-Bromobenzyl)sulfonyl)-3-((dimethylamino)methyl)-4-(3-methoxyphenyl)piperidin-4-ol hydrochloride] | 18.2 ± 4.37 | 15.1 ± 2.47 | 81.71 |  |  |  |  | inhibition at 1 µM (κ opioid receptor; [2]): 42.1 ± 2.29% |
| COc1cccc(C2(O)CCN(C(=O)Nc3cc(Cl)c(Cl)c(Cl)c3)CC2CN(C)C)c1 (stereo not shown) [FWBF6, 3-((Dimethylamino)methyl)-4-hydroxy-4-(3-methoxyphenyl)-N-(3,4,5-trichlorophenyl) piperidine-1-carboxamide hydrochloride] |  |  |  | 13.2 ± 8 | 0 | 0 | 4.54 |  |
| CCCS(=O)(=O)N1CCC(O)(c2cccc(OC)c2)C(CN(C)C)C1.Cl (stereo not shown) [FWBH19, 3-((Dimethylamino)methyl)-4-(3-methoxyphenyl)-1-(propylsulfonyl)piperidin-4-ol hydrochloride] | 133 ± 3.1 | 17.5 ± 4.38 | 17.04 |  |  |  |  | inhibition at 1 µM (κ opioid receptor; [2]): 19.1 ± 10.3% |
| COc1cccc(C2(O)CCN(S(=O)(=O)C[C@@]34CC[C@@H](CC3O)C4(C)C)CC2CN(C)C)c1 (stereo partly drawn) [FWBH26, 3-((Dimethylamino)methyl)-1-((((1R,4S)-2-hydroxy-7,7-dimethylbicyclo[2.2.1]hept-1-yl)methyl)sulfonic acid acyl)-4-(3-methoxyphenyl)piperidin-4-ol hydrochlorid, hydrochloride] | 11.5 ± 1.6 | 9.15 ± 1.92 | 44.91 |  |  |  |  | Ki (κ opioid receptor; Table 2-1, read-out: κOR Ki): 8.2 ± 3.1 nM |
| COc1cccc(C2(O)CCN(S(=O)(=O)Cc3ccccc3)CC2CN(C)C)c1.Cl (stereo not shown) [FWBH6, 1-(Benzylsulfonyl)-3-((dimethylamino)methyl)-4-(3-methoxyphenyl)piperidin-4-ol hydrochloride] |  |  |  |  |  |  |  | inhibition at 1 µM (μ opioid receptor; Table 2-1, 1 μM concentration of compound, read-out: μOR Binding rate (%)): 0%; Ki (δ opioid receptor): > 10000 nM; Ki (κ opioid receptor): > 10000 nM; ED50 (Female mice; Table 2-2, hot plate): 1.1 mg/kg |
| COc1cccc(C2(O)CCN(C(=O)C3(c4ccccc4)CCC3)CC2CN(C)C)c1.Cl (stereo not shown) [FWBE25, (3-((Dimethylamino)methyl)-4-hydroxy-4-(3-methoxyphenyl)piperidin-1-yl)(1-phenylcyclobutyl) methanone hydrochloride] |  |  |  |  |  |  |  | Ki (μ opioid receptor; Table 5-1): 80.9 ± 5.67 nM; Ki (δ opioid receptor; Table 5-1, read-out: δOR Ki): 717 ± 253 nM; Ki (κ opioid receptor; Table 5-1, read-out: κOR Ki): 205 ± 40.9 nM; Maximum percentage effective analgesia (% MPE) (Female mice; Table 5-2, hot plate 55° C., 10 mg/kg dose): 5.03% |
| COc1cccc(C2(O)CCN(C(=O)Nc3ccc(F)c(F)c3)CC2CN(C)C)c1.Cl (stereo not shown) [FWBF8, N-(3,4-difluorophenyl)-3-((dimethylamino)methyl)-4-hydroxy-4-(3-methoxyphenyl)piperidine-1-carboxamide hydrochloride] |  |  |  | 13.6 ± 13.1 | 16.4 ± 10.6 | 0 | 21.76 |  |
| COc1cccc(C2(O)CCC(N(Cc3ccccc3)S(=O)(=O)c3cccs3)CC2CN(C)C)c1.Cl (stereo not shown) [N-Benzyl-N-(3-((dimethylamino)methyl)-4-hydroxy-4-(3-methoxyphenyl)cyclohexyl)thiophene-2-sulfonamide hydrochloride] |  |  |  |  |  |  |  | inhibition at 10 µM (μ opioid receptor; Table 1-1, 10 μM concentration of compound, mean ± SD of three measurements, read-out: μOR Binding rate (%)): 68.4 ± 3.4%; inhibition at 10 µM (δ opioid receptor; 0.5 h, Table 1-1, 10 μM concentration of compound, read-out: δOR Binding rate (%)): 0%; inhibition at 10 µM (κ opioid receptor; 0.5 h, Table 1-1, 10 μM concentration of compound, read-out: κOR Binding rate (%)): 71.2 ± 2.7%; Maximum percentage effective analgesic (% MPE) (Female mice; Table 1-2, hot plate 55° C., 5 mg/kg dose): 22.8% |
| COC(=O)c1sccc1NC(=O)N1CCC(O)(c2cccc(OC)c2)C(CN(C)C)C1 (stereo not shown) [FWBF17, Methyl 3-(3-((dimethylamino)methyl)-4-hydroxy-4-(3-methoxyphenyl)piperidine-1-carboxamide) thiophene-2-carboxylate hydrochloride] |  |  |  | 10.2 ± 9 | 0 | 0 | 19.34 |  |
| COc1cccc(C2(O)CCN(C(=O)Nc3ccccc3)CC2CN(C)C)c1.Cl (stereo not shown) [FWBF1, 3-((Dimethylamino)methyl)-4-hydroxy-4-(3-methoxyphenyl)-N-phenylpiperidine-1-carboxamide hydrochloride] |  |  |  |  |  |  |  | Ki (μ opioid receptor; Table 3-1): 7.3 ± 0.5 nM; Ki (δ opioid receptor; Table 3-1, read-out: δOR Ki): 849 ± 96.6 nM; Ki (κ opioid receptor; Table 3-1, read-out: κOR Ki): 49.1 ± 6.9 nM; ED50 (Female mice; Table 3-2, hot plate): 2.75 mg/kg |
